Source: patent US8486977B2, “1,2,3-triazole derivatives for use as stearoyl-CoA desaturase inhibitors” (GlaxoSmithKline LLC, priority 2007, dated 2013)

| Compound | melting point |
| --- | --- |
| Cc1c(C(=O)Nc2ccc(Cl)c(CO)c2)nnn1Cc1ccc(Cl)c(Cl)c1 [Example 45, N-[4-Chloro-3-(hydroxymethyl)phenyl]-1-[(3,4-dichlorophenyl)methyl]-5-methyl-1H-1,2,3-triazole-4-carboxamide] | 190.3 °C |
| COC(=O)c1ccc(NC(=O)c2nnn(Cc3ccc(Cl)c(Cl)c3)c2C)cc1C(=O)OC [Example 46, Dimethyl 4-[({1-[(3,4-dichlorophenyl)methyl]-5-methyl-1H-1,2,3-triazol-4-yl}carbonyl)amino]-1,2-benzenedicarboxylate] | 148 °C |
| COC(=O)c1cc(NC(=O)c2nnn(Cc3cc(Cl)cc(Cl)c3)c2C)ccc1F [Example 47, Methyl 5-[({1-[(3,5-dichlorophenyl)methyl]-5-methyl-1H-1,2,3-triazol-4-yl}carbonyl)amino]-2-fluorobenzoate] | 191 °C |
| CCOC(=O)c1ccc(NC(=O)c2nnn(Cc3ccc(Cl)c(Cl)c3)c2C)cc1 [Example 48, Ethyl 4-[({1-[(3,4-dichlorophenyl)methyl]-5-methyl-1H-1,2,3-triazol-4-yl}carbonyl)amino]benzoate] | 167 °C |
| COc1cc(CO)ccc1NC(=O)c1nnn(Cc2ccc(Cl)c(Cl)c2)c1C [Example 49, 1-[(3,4-Dichlorophenyl)methyl]-N-[4-(hydroxymethyl)-2-(methyloxy)phenyl]-5-methyl-1H-1,2,3-triazole-4-carboxamide] | 136 °C |
| Cc1c(C(=O)Nc2ccc(CCO)cc2)nnn1Cc1ccc(Cl)c(Cl)c1 [Example 50, 1-[(3,4-Dichlorophenyl)methyl]-N-[4-(2-hydroxyethyl)phenyl]-5-methyl-1H-1,2,3-triazole-4-carboxamide] | 144 °C |
| COc1ccc(CO)cc1NC(=O)c1nnn(Cc2ccc(Cl)c(Cl)c2)c1C [Example 51, 1-[(3,4-Dichlorophenyl)methyl]-N-[5-(hydroxymethyl)-2-(methyloxy)phenyl]-5-methyl-1H-1,2,3-triazole-4-carboxamide] | 198 °C |
| Cc1c(C(=O)Nc2cc(CO)cc(CO)c2)nnn1Cc1ccc(Cl)c(Cl)c1 [Example 52, N-[3,5-bis(Hydroxymethyl)phenyl]-1-[(3,4-dichlorophenyl)methyl]-5-methyl-1H-1,2,3-triazole-4-carboxamide] | 194.5 °C |
| Cc1c(C(=O)Nc2ccc(F)c(CO)c2)nnn1Cc1ccc(Cl)c(Cl)c1 [Example 53, 1-[(3,4-Dichlorophenyl)methyl]-N-[4-fluoro-3-(hydroxymethyl)phenyl]-5-methyl-1H-1,2,3-triazole-4-carboxamide] | 189.7 °C |
| COc1ccc(CCO)cc1NC(=O)c1nnn(Cc2ccc(Cl)c(Cl)c2)c1C [Example 54, 1-[(3,4-Dichlorophenyl)methyl]-N-[5-(2-hydroxyethyl)-2-(methyloxy)phenyl]-5-methyl-1H-1,2,3-triazole-4-carboxamide] | 138 °C |
| Cc1c(C(=O)Nc2cc(CO)ccc2F)nnn1Cc1ccc(Cl)c(Cl)c1 [Example 55, 1-[(3,4-Dichlorophenyl)methyl]-N-[2-fluoro-5-(hydroxymethyl)phenyl]-5-methyl-1H-1,2,3-triazole-4-carboxamide] | 210.5 °C |
| Cc1c(C(=O)Nc2cc(CO)ccc2Cl)nnn1Cc1ccc(Cl)c(Cl)c1 [Example 56, N-[2-Chloro-5-(hydroxymethyl)phenyl]-1-[(3,4-dichlorophenyl)methyl]-5-methyl-1H-1,2,3-triazole-4-carboxamide] | 220 °C |
| COc1ccc(CO)cc1NC(=O)c1nnn(Cc2cc(Cl)cc(Cl)c2)c1C [Example 57, 1-[(3,5-Dichlorophenyl)methyl]-N-[5-(hydroxymethyl)-2-(methyloxy)phenyl]-5-methyl-1H-1,2,3-triazole-4-carboxamide] | 214 °C |
| Cc1c(C(=O)Nc2ccc(CO)c(CO)c2)nnn1Cc1ccc(Cl)c(Cl)c1 [Example 58, N-[3,4-bis(Hydroxymethyl)phenyl]-1-[(3,4-dichlorophenyl)methyl]-5-methyl-1H-1,2,3-triazole-4-carboxamide] | 203 °C |
| Cc1c(C(=O)Nc2ccc(F)c(CO)c2)nnn1Cc1cc(Cl)cc(Cl)c1 [Example 59, 1-[(3,5-Dichlorophenyl)methyl]-N-[4-fluoro-3-(hydroxymethyl)phenyl]-5-methyl-1H-1,2,3-triazole-4-carboxamide] | 178 °C |
| Cc1c(C(=O)Nc2cc(CO)cc(CO)c2)nnn1Cc1ccccc1 [Example 60, N-[3,5-bis(Hydroxymethyl)phenyl]-5-methyl-1-(phenylmethyl)-1H-1,2,3-triazole-4-carboxamide] | 148.2 °C |
| Cc1c(C(=O)Nc2cc(CO)cc(CO)c2)nnn1Cc1cccc(Cl)c1 [Example 61, -[3,5-bis(Hydroxymethyl)phenyl]-1-[(3-chlorophenyl)methyl]-5-methyl-1H-1,2,3-triazole-4-carboxamide] | 192.7 °C |
| Cc1c(C(=O)Nc2cccc(CCO)c2)nnn1Cc1ccc(Cl)c(Cl)c1 [Example 62, 1-[(3,4-Dichlorophenyl)methyl]-N-[3-(2-hydroxyethyl)phenyl]-5-methyl-1H-1,2,3-triazole-4-carboxamide] | 142 °C |

| Compound | melting point |
| --- | --- |
| Cc1c(C(=O)Nc2cccc(C(=O)O)c2)nnn1Cc1ccc(Cl)c(Cl)c1 [Example 63, 3-[({1-[(3,4-Dichlorophenyl)methyl]-5-methyl-1H-1,2,3-triazol-4-yl}carbonyl)amino]benzoic acid] | 267.6 °C |
| COc1ccc(C(=O)O)cc1NC(=O)c1nnn(Cc2ccc(Cl)c(Cl)c2)c1C [Example 64, 3-[({1-[(3,4-Dichlorophenyl)methyl]-5-methyl-1H-1,2,3-triazol-4-yl}carbonyl)amino]-4-(methyloxy)benzoic acid] | 243.9 °C |
| Cc1c(C(=O)Nc2cc(C(=O)O)cc(C(=O)O)c2)nnn1Cc1ccccc1 [Example 65, 5-({[5-Methyl-1-(phenylmethyl)-1H-1,2,3-triazol-4-yl]carbonyl}amino)-1,3-benzenedicarboxylic acid] | 307.2 °C |
| Cc1c(C(=O)Nc2ccc(C(=O)O)cc2)nnn1Cc1ccc(Cl)c(Cl)c1 [Example 66, 4-[({1-[(3,4-Dichlorophenyl)methyl]-5-methyl-1H-1,2,3-triazol-4-yl}carbonyl)amino]benzoic acid] | > 260 °C |
| CCNC(=O)c1cccc(NC(=O)c2nnn(Cc3ccc(Cl)c(Cl)c3)c2C)c1 [Example 67, 1-[(3,4-Dichlorophenyl)methyl]-N-{3-[(ethylamino)carbonyl]phenyl}-5-methyl-1H-1,2,3-triazole-4-carboxamide] | 192.2 °C |
| Cc1c(C(=O)Nc2cccc(C(=O)NCCO)c2)nnn1Cc1ccc(Cl)c(Cl)c1 [Example 68, 1-[(3,4-Dichlorophenyl)methyl]-N-(3-{[(2-hydroxyethyl)amino]carbonyl}phenyl)-5-methyl-1H-1,2,3-triazole-4-carboxamide] | 190.7 °C |
| CNC(=O)c1ccc(OC)c(NC(=O)c2nnn(Cc3ccc(Cl)c(Cl)c3)c2C)c1 [Example 69, 1-[(3,4-Dichlorophenyl)methyl]-5-methyl-N-[5-[(methylamino)carbonyl]-2-(methyloxy)phenyl]-1H-1,2,3-triazole-4-carboxamide] | 222.2 °C |
| CC(=O)OCc1cccc(NC(=O)c2nnn(Cc3ccc(Cl)c(Cl)c3)c2C)c1 [Example 70, {3-[({1-[(3,4-Dichlorophenyl)methyl]-5-methyl-1H-1,2,3-triazol-4-yl}carbonyl)amino]phenyl}methyl acetate] | > 70 °C |
| Cc1c(C(=O)Nc2ccc(OCCO)cc2)nnn1Cc1ccc(Cl)c(Cl)c1 [Example 74, 1-[(3,4-Dichlorophenyl)methyl]-N-{4-[(2-hydroxyethyl)oxy]phenyl}-5-methyl-1H-1,2,3-triazole-4-carboxamide] | 140 °C |
| Cc1c(C(=O)Nc2cccc(C(C)(C)O)c2)nnn1Cc1ccc(Cl)c(Cl)c1 [Example 76, 1-[(3,4-Dichlorophenyl)methyl]-N-[3-(1-hydroxy-1-methylethyl)phenyl]-5-methyl-1H-1,2,3-triazole-4-carboxamide] | 58 °C |
| Cc1c(C(=O)Nc2ccc(OCCN(C)C)c(CO)c2)nnn1Cc1ccc(Cl)c(Cl)c1 [Example 77, 1-[(3,4-Dichlorophenyl)methyl]-N-[4-{[2-(dimethylamino)ethyl]oxy}-3-(hydroxymethyl)phenyl]-5-methyl-1H-1,2,3-triazole-4-carboxamide] | 163.1 °C |
| Cc1c(C(=O)Nc2cccc(OCCO)c2)nnn1Cc1ccc(Cl)c(Cl)c1 [Example 78, 1-[(3,4-Dichlorophenyl)methyl]-N-{3-[(2-hydroxyethyl)oxy]phenyl}-5-methyl-1H-1,2,3-triazole-4-carboxamide] | 144.9 °C |
| Cc1c(CNc2cc(CO)cc(CO)c2)nnn1Cc1ccc(Cl)c(Cl)c1 [Example 79, {5-[({1-[(3,4-Dichlorophenyl)methyl]-5-methyl-1H-1,2,3-triazol-4-yl}methyl)amino]benzene-1,3-diyl}dimethanol] | 120 °C |
| Cc1c(C(=O)Nc2ccc(CO)c(CO)c2)nnn1Cc1ccccc1 [Example 80, N-[3,4-bis(Hydroxymethyl)phenyl]-5-methyl-1-(phenylmethyl)-1H-1,2,3-triazole-4-carboxamide] | 171.4 °C |
| Cc1c(C(=O)Nc2cc(CO)cc(CO)c2)nnn1Cc1ccc(F)cc1 [Example 81, N-[3,5-bis(Hydroxymethyl)phenyl]-1-[(4-fluorophenyl)methyl]-5-methyl-1H-1,2,3-triazole-4-carboxamide] | 180.3 °C |
| Cc1c(C(=O)Nc2ccc(CO)c(CO)c2)nnn1Cc1cccc(Cl)c1 [Example 82, N-[3,4-bis(Hydroxymethyl)phenyl]-1-[(3-chlorophenyl)methyl]-5-methyl-1H-1,2,3-triazole-4-carboxamide] | 157 °C |
| Cc1c(C(=O)Nc2ccc(CO)c(CO)c2)nnn1Cc1ccc(F)cc1 [Example 83, N-[3,4-bis(Hydroxymethyl)phenyl]-1-[(4-fluorophenyl)methyl]-5-methyl-1H-1,2,3-triazole-4-carboxamide] | 175.5 °C |
| Cc1c(C(=O)Nc2cc(CO)cc(CO)c2)nnn1Cc1cccc(F)c1 [Example 84, N-[3,5-bis(Hydroxymethyl)phenyl]-1-[(3-fluorophenyl)methyl]-5-methyl-1H-1,2,3-triazole-4-carboxamide] | 173.1 °C |
